From US12435044B2, “Pyridazinone herbicides and pyridazinone intermediates used to prepare a herbicide” (FMC Corporation, priority 2018, dated 2025)

Assays:
Test in all cases: Test E pre-/postemergence greenhouse test
Assay type in all cases: in vivo
[1] = test system: crabgrass, large (Digitaria sanguinalis)
From the text: (§1) Seeds of plant species selected from corn (Zea mays), soybean (Glycine max), velvetleaf (Abutilon theophrasti), lambsquarters (Chenopodium album), poinsettia, wild (Euphorbia heterophylla), pigweed, palmer (Amaranthus palmeri), waterhemp (common waterhemp, Amaranthus rudis), surinam grass (Brachiaria decumbens), crabgrass, large (Digitaria sanguinalis), crabgrass, Brazil (Digitaria horizontalis), panicum, fall (Panicum dichotomiflorum), foxtail, giant (Setaria faberii), foxtail, green (Setaria viridis), goosegrass (Eleusine indica), johnsongrass (Sorghum halepense), ragweed (common ragweed, Ambrosia elatior), barnyardgrass (Echinochloa crus-galli), sandbur (southern sandbur, Cenchrus echinatus), arrowleaf sida (Sida rhombifolia), ryegrass, Italian (Lolium multiflorum), dayflower, VA (Virginia (VA) dayflower, Commelina virginica), field bindweed (Convolvulus arvensis), morningglory (Ipomoea coccinea), horseweed (Conyza canadensis), kochia (Kochia scoparia), nutsedge, yellow (Cyperus esculentus) and hairy beggarticks (Bidenspilosa), were planted into a silt loam soil and treated preemergence with test chemicals formulated in a non-phytotoxic solvent mixture which included a surfactant.
(§2) At the same time, plants selected from these crop and weed species and also waterhemp_RES1, (ALS & Triazine resistant common waterhemp, Amaranthus rudis), and waterhemp_RES2, (ALS & HPPD resistant common waterhemp, Amaranthus rudis) were planted in pots containing Redi-Earth® planting medium (Scotts Company, 14111 Scottslawn Road, Marysville, Ohio 43041) comprising spaghnum peat moss, vermiculite, wetting agent and starter nutrients were treated with postemergence applications of test chemicals formulated in the same manner. Plants ranged in height from 2 to 18 cm for postemergence treatments (1- to 4-leaf stage). Treated plants and controls were maintained in a greenhouse for 14 to 21 d, after which time all species were compared to controls and visually evaluated. Plant response ratings, summarized in Table E, are based on a scale of 0 to 100 where 0 is no effect and 100 is complete control. A dash (-) response means no test result.

corn (Zea mays) = test system: corn (Zea mays)
From the text: as §1, §2

soybean (Glycine max) = test system: soybean (Glycine max)
From the text: as §1, §2

[2] = test system: velvetleaf (Abutilon theophrasti)
From the text: as §1, §2

[3] = test system: waterhemp (common waterhemp, Amaranthus rudis)
From the text: as §1, §2

[4] = test system: foxtail, giant (Setaria faberii)
From the text: as §1, §2

[5] = test system: barnyardgrass (Echinochloa crus-galli)
From the text: as §1, §2

[6] = test system: ragweed (common ragweed, Ambrosia elatior)
From the text: as §1, §2

[7] = test system: panicum, fall (Panicum dichotomiflorum)
From the text: as §1, §2

[8] = test system: horseweed (Conyza canadensis)
From the text: as §1, §2

[9] = test system: pigweed, palmer (Amaranthus palmeri)
From the text: as §1, §2

[10] = test system: surinam grass (Brachiaria decumbens)
From the text: as §1, §2

## Cc1cc(Cl)c2ccccc2c1-c1c(O)c(Cl)nn(C)c1=O [Cpd. No. 65]
[1]; Postemergence, 16 g ai/ha
  Plant response rating, Crabgrass, Large: 10
[1]; Postemergence, 31 g ai/ha
  Plant response rating, Crabgrass, Large: 13
[1]; Postemergence, 62 g ai/ha
  Plant response rating, Crabgrass, Large: 30
[1]; Postemergence, 125 g ai/ha
  Plant response rating, Crabgrass, Large: 35
[1]; Preemergence, 16 g ai/ha
  Plant response rating, Crabgrass, Large: 45
[1]; Preemergence, 31 g ai/ha
  Plant response rating, Crabgrass, Large: 18
[1]; Preemergence, 62 g ai/ha
  Plant response rating, Crabgrass, Large: 38
[1]; Preemergence, 125 g ai/ha
  Plant response rating, Crabgrass, Large: 48
Corn (Zea mays); Postemergence, 16 g ai/ha
  Plant response rating, Corn: 0
Corn (Zea mays); Postemergence, 31 g ai/ha
  Plant response rating, Corn: 20
Corn (Zea mays); Postemergence, 62 g ai/ha
  Plant response rating, Corn: 23
Corn (Zea mays); Postemergence, 125 g ai/ha
  Plant response rating, Corn: 35
Corn (Zea mays); Preemergence, 16 g ai/ha
  Plant response rating, Corn: 0
Corn (Zea mays); Preemergence, 31 g ai/ha
  Plant response rating, Corn: 5
Corn (Zea mays); Preemergence, 62 g ai/ha
  Plant response rating, Corn: 20
Corn (Zea mays); Preemergence, 125 g ai/ha
  Plant response rating, Corn: 43
Soybean (Glycine max); Postemergence, 16 g ai/ha
  Plant response rating, Soybean: 70
Soybean (Glycine max); Postemergence, 31 g ai/ha
  Plant response rating, Soybean: 80
Soybean (Glycine max); Postemergence, 62 g ai/ha
  Plant response rating, Soybean: 90
Soybean (Glycine max); Postemergence, 125 g ai/ha
  Plant response rating, Soybean: 93
Soybean (Glycine max); Preemergence, 16 g ai/ha
  Plant response rating, Soybean: 23
Soybean (Glycine max); Preemergence, 31 g ai/ha
  Plant response rating, Soybean: 13
Soybean (Glycine max); Preemergence, 62 g ai/ha
  Plant response rating, Soybean: 15
Soybean (Glycine max); Preemergence, 125 g ai/ha
  Plant response rating, Soybean: 43
[2]; Postemergence, 16 g ai/ha
  Plant response rating, Velvetleaf: 75
[2]; Postemergence, 31 g ai/ha
  Plant response rating, Velvetleaf: 90
[2]; Postemergence, 62 g ai/ha
  Plant response rating, Velvetleaf: 85
[2]; Postemergence, 125 g ai/ha
  Plant response rating, Velvetleaf: 90
[2]; Preemergence, 16 g ai/ha
  Plant response rating, Velvetleaf: 75
[2]; Preemergence, 31 g ai/ha
  Plant response rating, Velvetleaf: 100
[2]; Preemergence, 62 g ai/ha
  Plant response rating, Velvetleaf: 100
[2]; Preemergence, 125 g ai/ha
  Plant response rating, Velvetleaf: 100
[3]; Postemergence, 16 g ai/ha
  Plant response rating, Waterhemp: 83
[3]; Postemergence, 31 g ai/ha
  Plant response rating, Waterhemp: 88
[3]; Postemergence, 62 g ai/ha
  Plant response rating, Waterhemp: 99
[3]; Postemergence, 125 g ai/ha
  Plant response rating, Waterhemp: 97
[3]; Preemergence, 16 g ai/ha
  Plant response rating, Waterhemp: 75
[3]; Preemergence, 31 g ai/ha
  Plant response rating, Waterhemp: 90
[3]; Preemergence, 62 g ai/ha
  Plant response rating, Waterhemp: 99
[3]; Preemergence, 125 g ai/ha
  Plant response rating, Waterhemp: 99
[4]; Postemergence, 16 g ai/ha
  Plant response rating, Foxtail, Giant: 70
[4]; Postemergence, 31 g ai/ha
  Plant response rating, Foxtail, Giant: 88
[4]; Postemergence, 62 g ai/ha
  Plant response rating, Foxtail, Giant: 90
[4]; Postemergence, 125 g ai/ha
  Plant response rating, Foxtail, Giant: 95
[4]; Preemergence, 16 g ai/ha
  Plant response rating, Foxtail, Giant: 5
[4]; Preemergence, 31 g ai/ha
  Plant response rating, Foxtail, Giant: 78
[4]; Preemergence, 62 g ai/ha
  Plant response rating, Foxtail, Giant: 90
[4]; Preemergence, 125 g ai/ha
  Plant response rating, Foxtail, Giant: 100
[5]; Postemergence, 16 g ai/ha
  Plant response rating, Barnyardgrass: 80
[5]; Postemergence, 31 g ai/ha
  Plant response rating, Barnyardgrass: 88
[5]; Postemergence, 62 g ai/ha
  Plant response rating, Barnyardgrass: 93
[5]; Postemergence, 125 g ai/ha
  Plant response rating, Barnyardgrass: 95
[5]; Preemergence, 16 g ai/ha
  Plant response rating, Barnyardgrass: 0
[5]; Preemergence, 31 g ai/ha
  Plant response rating, Barnyardgrass: 40
[5]; Preemergence, 62 g ai/ha
  Plant response rating, Barnyardgrass: 38
[5]; Preemergence, 125 g ai/ha
  Plant response rating, Barnyardgrass: 60
[6]; Postemergence, 16 g ai/ha
  Plant response rating, Ragweed: 95
[6]; Postemergence, 31 g ai/ha
  Plant response rating, Ragweed: 93
[6]; Postemergence, 62 g ai/ha
  Plant response rating, Ragweed: 95
[6]; Postemergence, 125 g ai/ha
  Plant response rating, Ragweed: 93
[6]; Preemergence, 16 g ai/ha
  Plant response rating, Ragweed: 75
[6]; Preemergence, 31 g ai/ha
  Plant response rating, Ragweed: 99
[6]; Preemergence, 62 g ai/ha
  Plant response rating, Ragweed: 100
[6]; Preemergence, 125 g ai/ha
  Plant response rating, Ragweed: 100
[7]; Postemergence, 16 g ai/ha
  Plant response rating, Panicum, Fall: 80
[7]; Postemergence, 31 g ai/ha
  Plant response rating, Panicum, Fall: 88
[7]; Postemergence, 62 g ai/ha
  Plant response rating, Panicum, Fall: 93
[7]; Postemergence, 125 g ai/ha
  Plant response rating, Panicum, Fall: 93
[7]; Preemergence, 16 g ai/ha
  Plant response rating, Panicum, Fall: 75
[7]; Preemergence, 31 g ai/ha
  Plant response rating, Panicum, Fall: 99
[7]; Preemergence, 62 g ai/ha
  Plant response rating, Panicum, Fall: 100
[7]; Preemergence, 125 g ai/ha
  Plant response rating, Panicum, Fall: 99
[8]; Postemergence, 16 g ai/ha
  Plant response rating, Horseweed: 65
[8]; Postemergence, 31 g ai/ha
  Plant response rating, Horseweed: 75
[8]; Postemergence, 62 g ai/ha
  Plant response rating, Horseweed: 85
[8]; Postemergence, 125 g ai/ha
  Plant response rating, Horseweed: 85
[8]; Preemergence, 16 g ai/ha
  Plant response rating, Horseweed: 100
[8]; Preemergence, 31 g ai/ha
  Plant response rating, Horseweed: 100
[8]; Preemergence, 62 g ai/ha
  Plant response rating, Horseweed: 100
[8]; Preemergence, 125 g ai/ha
  Plant response rating, Horseweed: 100
[9]; Postemergence, 16 g ai/ha
  Plant response rating, Pigweed, Palmer: 35
[9]; Postemergence, 31 g ai/ha
  Plant response rating, Pigweed, Palmer: 43
[9]; Postemergence, 62 g ai/ha
  Plant response rating, Pigweed, Palmer: 68
[9]; Postemergence, 125 g ai/ha
  Plant response rating, Pigweed, Palmer: 55
[9]; Preemergence, 16 g ai/ha
  Plant response rating, Pigweed, Palmer: 40
[9]; Preemergence, 31 g ai/ha
  Plant response rating, Pigweed, Palmer: 58
[9]; Preemergence, 62 g ai/ha
  Plant response rating, Pigweed, Palmer: 80
[9]; Preemergence, 125 g ai/ha
  Plant response rating, Pigweed, Palmer: 90
[10]; Postemergence, 16 g ai/ha
  Plant response rating, Surinam Grass: 73
[10]; Postemergence, 31 g ai/ha
  Plant response rating, Surinam Grass: 78
[10]; Postemergence, 62 g ai/ha
  Plant response rating, Surinam Grass: 85
[10]; Postemergence, 125 g ai/ha
  Plant response rating, Surinam Grass: 93
[10]; Preemergence, 16 g ai/ha
  Plant response rating, Surinam Grass: 8
[10]; Preemergence, 31 g ai/ha
  Plant response rating, Surinam Grass: 92
[10]; Preemergence, 62 g ai/ha
  Plant response rating, Surinam Grass: 85
[10]; Preemergence, 125 g ai/ha
  Plant response rating, Surinam Grass: 100
